From publication PMC7646944 (2020) come the findings set out here.

The test system of assay [1] is SCA2.1–40 (DNA, aptamer) CTTACGACCTTAAGTGGGGTTCGGGTGGAGTTTATGGGGT
Briefly: isothermal titration calorimetry.

Assay [2] concerns SCA2.1–34 (DNA, aptamer) ACCTTAAGTGGGGTTCGGGTGGAGTTTATGGGGT
The assay is described as follows: isothermal titration calorimetry.

Take `CCCC(C(=O)c1ccc2c(c1)OCO2)N1CCCC1` (stereo not drawn): the KD worked out at 292 ± 14 µM in assay [1] and 96 ± 4.0 µM in assay [2].

Turning to `CCC[C@H](C(=O)c1ccc2c(c1)OCO2)N1CCCC1`, the KD in assay [1] came out at 0.65 ± 0.03 µM.

What is called KD is the free concentration of one partner at which half of the binding sites on the other are occupied at equilibrium, for simple one-to-one binding. The low end stands for tighter binding, the high end for weaker binding.
